The values below come from US8574563B2 (Bristol-Myers Squibb Company, priority 2006, dated 2013).

The experiment relates to HCV 1b-377-neo replicon cells. Nature of the experiment: HCV replicon assay, HCV 1b-377-neo replicon cells (1b FRET). It is filed as cell-based, Hepatitis C virus genotype 1b. The settings on record: HCV 1b-377-neo replicon cells, HCV 1b genotype; for EC50: read-out: EC50 range against HCV 1b (Table 2, Range). In a few lines:
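FRET-based replicon assay in HCV 1b-377-neo cells, including a comparison line carrying the NS5A Y2065H mutation that confers resistance to a reference compound.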
A general note: Replicon systems follow genome replication, usually without infectious particles.

Where two headings read alike, the source gives them in different places.

With `COC(=O)N[C@@H](C(=O)N1CCC[C@H]1c1ncc(-c2ccc(-c3ccc(-c4cnc([C@@H]5CCCN5C(=O)[C@H](OC(C)=O)c5ccccc5)[nH]4)cc3)cc2)[nH]1)c1ccccc1` [Example 84-82, (1R)-2-((2S)-2-(5-(4′-(2-((2S)-1-((2R)-2-((methoxycarbonyl)amino)-2-phenylacetyl)-2-pyrrolidinyl)-1H-imidazol-5-yl)-4-biphenylyl)-1H-imidazol-2-yl)-1-pyrrolidinyl)-2-oxo-1-phenylethyl acetate], the EC50 (Hepatitis C virus) was 0.001 to 0.999 nM.
The same measure, in the same setting: the same measure for `COC(=O)N[C@@H](C(=O)N1CCC[C@H]1c1ncc(-c2ccc(-c3ccc(-c4cnc([C@@H]5CCCN5C(=O)[C@@H](OC(C)=O)c5ccccc5)[nH]4)cc3)cc2)[nH]1)c1ccccc1` [Example 84-83, (1S)-2-((2S)-2-(5-(4′-(2-((2S)-1-((2R)-2-((methoxycarbonyl)amino)-2-phenylacetyl)-2-pyrrolidinyl)-1H-imidazol-5-yl)-4-biphenylyl)-1H-imidazol-2-yl)-1-pyrrolidinyl)-2-oxo-1-phenylethyl acetate]: 0.001 to 0.999 nM; for `COC(=O)N[C@@H](C(=O)N1CCC[C@H]1c1ncc(-c2ccc(-c3ccc(-c4cnc([C@@H]5CCCN5C(=O)Cc5ccccc5CN5CCOCC5)[nH]4)cc3)cc2)[nH]1)c1ccccc1` [Example 84-84, methyl ((1R)-2-((2S)-2-(5-(4′-(2-((2S)-1-((2-(4-morpholinylmethyl)phenyl)acetyl)-2-pyrrolidinyl)-1H-imidazol-5-yl)-4-biphenylyl)-1H-imidazol-2-yl)-1-pyrrolidinyl)-2-oxo-1-phenylethyl)carbamate]: 0.001 to 0.999 nM.
As for `COC(=O)N[C@@H](C(=O)N1CCC[C@H]1c1ncc(-c2ccc(-c3ccc(-c4cnc([C@@H]5CCCN5C(=O)Cc5ccccc5CN5CCCCC5)[nH]4)cc3)cc2)[nH]1)c1ccccc1` [Example 84-85, methyl ((1R)-2-oxo-1-phenyl-2-((2S)-2-(5-(4′-(2-((2S)-1-((2-(1-piperidinylmethyl)phenyl)acetyl)-2-pyrrolidinyl)-1H-imidazol-5-yl)-4-biphenylyl)-1H-imidazol-2-yl)-1-pyrrolidinyl)ethyl)carbamate], the EC50 lay in the range of 0.001 to 0.999 nM.
Take `COC(=O)N[C@@H](C(=O)N1CCC[C@H]1c1ncc(-c2ccc(-c3ccc(-c4cnc([C@@H]5CCCN5C(=O)Cc5ccccc5CN5CCCC5)[nH]4)cc3)cc2)[nH]1)c1ccccc1` [Example 84-86, methyl ((1R)-2-oxo-1-phenyl-2-((2S)-2-(5-(4′-(2-((2S)-1-((2-(1-pyrrolidinylmethyl)phenyl)acetyl)-2-pyrrolidinyl)-1H-imidazol-5-yl)-4-biphenylyl)-1H-imidazol-2-yl)-1-pyrrolidinyl)ethyl)carbamate]: the EC50 was 0.001 to 0.999 nM.
Turning to `COC(=O)N[C@@H](C(=O)N1CCC[C@H]1c1ncc(-c2ccc(-c3ccc(-c4cnc([C@@H]5CCCN5C(=O)Cc5ccccc5CN(C)C)[nH]4)cc3)cc2)[nH]1)c1ccccc1` [Example 84-87, methyl ((1R)-2-((2S)-2-(5-(4′-(2-((2S)-1-((2-((dimethylamino)methyl)phenyl)acetyl)-2-pyrrolidinyl)-1H-imidazol-5-yl)-4-biphenylyl)-1H-imidazol-2-yl)-1-pyrrolidinyl)-2-oxo-1-phenylethyl)carbamate], the EC50 (Hepatitis C virus) lay within 0.001 to 0.999 nM.
Turning to `CN(C)[C@@H](C(=O)N1CCC[C@H]1c1ncc(-c2ccc(-c3ccc(-c4cnc([C@@H]5CCCN5C(=O)Cc5cccnc5)[nH]4)cc3)cc2)[nH]1)c1ccccc1` [Example 85, (1R)-N,N-dimethyl-2-oxo-1-phenyl-2((2S)-2-(5-(4′-(2-((2S)-1-(3-pyridinylacetyl)-2-pyrrolidinyl)-1H-imidazol-5-yl)-4-biphenylyl)-1H-imidazol-2-yl)-1-pyrrolidinyl)ethanamine], the concentration for a half-maximal effect (EC50) (Hepatitis C virus) was 0.001 to 0.999 nM.
Still for that read-out and setting: the result for `CN(C)[C@@H](C(=O)N1CCC[C@H]1c1ncc(-c2ccc(-c3ccc(-c4cnc([C@@H]5CCCN5C(=O)[C@H]5CCCO5)[nH]4)cc3)cc2)[nH]1)c1ccccc1` [Example 86, (1R)-N,N-dimethyl-2-oxo-1-phenyl-2-((2S)-2-(5-(4′-(2-((2S)-1-((2R)-tetrahydro-2-furanylcarbonyl)-2-pyrrolidinyl)-1H-imidazol-5-yl)-4-biphenylyl)-1H-imidazol-2-yl)-1-pyrrolidinyl)ethanamine] reads 0.001 to 0.999 nM.
Turning to `CN(C)[C@@H](C(=O)N1CCC[C@H]1c1ncc(-c2ccc(-c3ccc(-c4cnc([C@@H]5CCCN5C(=O)[C@@H]5CCCO5)[nH]4)cc3)cc2)[nH]1)c1ccccc1` [Example 87, (1R)-N,N-dimethyl-2-oxo-1-phenyl-2-((2S)-2-(5-(4′-(2-((2S)-1-((2S)-tetrahydro-2-furanylcarbonyl)-2-pyrrolidinyl)-1H-imidazol-5-yl)-4-biphenylyl)-1H-imidazol-2-yl)-1-pyrrolidinyl)ethanamine], the EC50 (Hepatitis C virus) was in the range of 0.001 to 0.999 nM.
For the compound `CN(C)[C@@H](C(=O)N1CCC[C@H]1c1ncc(-c2ccc(-c3ccc(-c4cnc([C@@H]5CCCN5C(=O)Cc5cn(C)cn5)[nH]4)cc3)cc2)[nH]1)c1ccccc1` [Example 88, (1R)-N,N-dimethyl-2-((2S)-2-(5-(4′-(2-((2S)-1-((1-methyl-1H-imidazol-4-yl)acetyl)-2-pyrrolidinyl)-1H-imidazol-5-yl)-4-biphenylyl)-1H-imidazol-2-yl)-1-pyrrolidinyl)-2-oxo-1-phenylethanamine], the concentration for a half-maximal effect (EC50) (Hepatitis C virus) is 0.001 to 0.999 nM.
Consider `CN(C)[C@@H](C(=O)N1CCC[C@H]1c1ncc(-c2ccc(-c3ccc(-c4cnc([C@@H]5CCCN5C(=O)[C@@H](c5ccccc5)N5CCCC5)[nH]4)cc3)cc2)[nH]1)c1ccccc1` [Example 90, (1R)-N,N-dimethyl-2-oxo-1-phenyl-2-((2S)-2-(5-(4′-(2-((2S)-1-((2R)-2-phenyl-2-(1-pyrrolidinyl)acetyl)-2-pyrrolidinyl)-1H-imidazol-5-yl)-4-biphenylyl)-1H-imidazol-2-yl)-1-pyrrolidinyl)ethanamine], for which the concentration giving a half-maximal response (EC50) (Hepatitis C virus) lay within 0.001 to 0.999 nM.
Still for that read-out and setting: the result for `COC(=O)N[C@@H](C)C(=O)N1CCC[C@H]1c1ncc(-c2ccc(-c3ccc(-c4cnc([C@@H]5CCCN5C(=O)[C@@H](c5ccccc5)N(C)C)[nH]4)cc3)cc2)[nH]1` [Example 92, methyl ((1S)-2-((2S)-2-(5-(4′-(2-((2S)-1-((2R)-2-(dimethylamino)-2-phenylacetyl)-2-pyrrolidinyl)-1H-imidazol-5-yl)-4-biphenylyl)-1H-imidazol-2-yl)-1-pyrrolidinyl)-1-methyl-2-oxoethyl)carbamate] reads 0.001 to 0.999 nM; that for `CN(C)[C@@H](C(=O)N1CCC[C@H]1c1ncc(-c2ccc(-c3ccc(-c4cnc([C@@H]5CCCN5C(=O)N5CCOCC5)[nH]4)cc3)cc2)[nH]1)c1ccccc1` [Example 93, (1R)-N,N-dimethyl-2-((2S)-2-(5-(4′-(2-((2S)-1-(4-morpholinylcarbonyl)-2-pyrrolidinyl)-1H-imidazol-5-yl)-4-biphenylyl)-1H-imidazol-2-yl)-1-pyrrolidinyl)-2-oxo-1-phenylethanamine], 0.001 to 0.999 nM.
In the case of `CN(C)[C@@H](C(=O)N1CCC[C@H]1c1ncc(-c2ccc(-c3ccc(-c4cnc([C@@H]5CCCN5C(=O)N5CCCC5)[nH]4)cc3)cc2)[nH]1)c1ccccc1` [Example 94, (1R)-N,N-dimethyl-2-oxo-1-phenyl-2-((2S)-2-(5-(4′-(2-((2S)-1-(1-pyrrolidinylcarbonyl)-2-pyrrolidinyl)-1H-imidazol-5-yl)-4-biphenylyl)-1H-imidazol-2-yl)-1-pyrrolidinyl)ethanamine], the EC50 (Hepatitis C virus) is 0.001 to 0.999 nM.
Regarding `CN(C)[C@@H](C(=O)N1CCC[C@H]1c1ncc(-c2ccc(-c3ccc(-c4cnc([C@@H]5CCCN5C(=O)[C@@](C)(O)c5ccccc5F)[nH]4)cc3)cc2)[nH]1)c1ccccc1` [Example 94-1, (2S)-1-((2S)-2-(5-(4′-(2-((2S)-1-((2R)-2-(dimethylamino)-2-phenylacetyl)-2-pyrrolidinyl)-1H-imidazol-5-yl)-4-biphenylyl)-1H-imidazol-2-yl)-1-pyrrolidinyl)-2-(2-fluorophenyl)-1-oxo-2-propanol], for the setting “Hepatitis C virus”, the concentration for a half-maximal effect (EC50) lay in the range of 0.001 to 0.999 nM.
On the same count and under the same terms, the result for `CN(C)[C@@H](C(=O)N1CCC[C@H]1c1ncc(-c2ccc(-c3ccc(-c4cnc([C@@H]5CCCN5C(=O)[C@H]5CCC(=O)N5)[nH]4)cc3)cc2)[nH]1)c1ccccc1` [Example 94-2, (5R)-5-(((2S)-2-(5-(4′-(2-((2S)-1-((2R)-2-(dimethylamino)-2-phenylacetyl)-2-pyrrolidinyl)-1H-imidazol-5-yl)-4-biphenylyl)-1H-imidazol-2-yl)-1-pyrrolidinyl)carbonyl)-2-pyrrolidinone] reads 1 to 99 nM; that for `CN(C)[C@@H](C(=O)N1CCC[C@H]1c1ncc(-c2ccc(-c3ccc(-c4cnc([C@@H]5CCCN5C(=O)[C@@H](c5ccccc5)N5CCC(C)(O)CC5)[nH]4)cc3)cc2)[nH]1)c1ccccc1` [Example 94-3, 1-((1R)-2-((2S)-2-(5-(4′-(2-((2S)-1-((2R)-2-(dimethylamino)-2-phenylacetyl)-2-pyrrolidinyl)-1H-imidazol-5-yl)-4-biphenylyl)-1H-imidazol-2-yl)-1-pyrrolidinyl)-2-oxo-1-phenylethyl)-4-methyl-4-piperidinol], 0.001 to 0.999 nM.
On to `CN(C)[C@@H](C(=O)N1CCC[C@H]1c1ncc(-c2ccc(-c3ccc(-c4cnc([C@@H]5CCCN5C(=O)CNC(=O)c5ccccc5)[nH]4)cc3)cc2)[nH]1)c1ccccc1` [Example 94-6, N-(2-((2S)-2-(5-(4′-(2-((2S)-1-((2R)-2-(dimethylamino)-2-phenylacetyl)-2-pyrrolidinyl)-1H-imidazol-5-yl)-4-biphenylyl)-1H-imidazol-2-yl)-1-pyrrolidinyl)-2-oxoethyl)benzamide], for which the “EC50 range against HCV 1b (Table 2, Range)” value was “C-D”.
Consider `CN(C)[C@@H](C(=O)N1CCC[C@H]1c1ncc(-c2ccc(-c3ccc(-c4cnc([C@@H]5CCCN5C(=O)c5ccc(N6CCOCC6)cc5)[nH]4)cc3)cc2)[nH]1)c1ccccc1` [Example 94-9, (1R)-N,N-dimethyl-2-((2S)-2-(5-(4′-(2-((2S)-1-(4-(4-morpholinyl)benzoyl)-2-pyrrolidinyl)-1H-imidazol-5-yl)-4-biphenylyl)-1H-imidazol-2-yl)-1-pyrrolidinyl)-2-oxo-1-phenylthanamine], for which the EC50 lay within 0.001 to 0.999 nM.

The term EC50 denotes the midpoint of the concentration-response curve.
